Experimental data as given in a melting point compilation (Tetko et al.; mined from patent text by program, amines drawn as free bases though some values may be those of a salt).

melting point [°C] | Compound
182 to 183 | Fc1ccccc1-c1nncc2c(-c3ccccc3)c(OCc3ccccn3)nn12
98 to 114 | CC1(C)OC(=O)C(Sc2ccccc2)=C1c1ccc(S(C)(=O)=O)cc1
55 to 61 | CCCCC(C#N)(Cn1ccnc1)c1ccc(S(=O)c2ccccc2)cc1 (configuration not stated)
176 to 177 | N#Cc1ccc2ccc3ccccc3c(=O)c2c1
177 to 178 | CCOC(=O)c1cn(CC)c2cc3c(cc2c1=O)OCO3
130 to 131 | Fc1ccc(-c2cc(N3CCN(c4ccc(F)cc4)CC3)nc3c2CCCCCC3)cc1
200 to 204 | COc1cc2cnnc(N3CCC(CCN(C)C(=O)Nc4cccnc4)CC3)c2cc1OC
222 to 225 | COc1ccc(Cn2cnc3c2CC(C(=O)O)N(C(=O)C(c2ccccc2)c2ccccc2)C3)cc1C (configuration not stated)
228 to 230 | O=C(NC(=O)c1c(Cl)cccc1Cl)Nc1ccc(C(F)(F)F)cn1
230 | Cn1cc([C@H]2CC[C@@H](N3CCN(c4cc(C(=O)O)cc5cccnc45)CC3)CC2)c2cc(C#N)ccc21
86.5 | O=C1CCCN1c1cccc(-c2ccc(CC34CCCN3C(=O)N(c3cc(Cl)cc(Cl)c3)C4=O)cc2)c1 (configuration not stated)
228 | Cc1ccc(-c2cncc(OC3SCC(O)C(O)C3O)c2)cc1 (configuration not stated)
71 to 75 | C[C@H]1[C@H](NC(=O)OC(C)(C)C)C(=O)N1OCC(=O)OCc1ccc([N+](=O)[O-])cc1
118 to 119 | COc1ccc(-c2cccc(C(=O)O)c2)c2cc(Cc3cccc(C(F)(F)F)c3)oc12
87 to 90 | CC(C)(C)OC(=O)NCC(N)C(=O)N1CCCCC1 (configuration not stated)
> 300 | O=C(Nc1cc(Cl)ccc1N1CCCCC1)c1cnn2cc(O)cnc12
199 | CCOC(=O)COn1c2c([nH]c(=O)c1=O)CCC1=C2C=C(n2ccc(CNC(=O)C(F)(F)F)c2)CC1
248 | CS(=O)(=O)c1ccc(Cn2ccc3c4c(N)nc(N)nc4ccc32)cc1
218 to 222 | NC(=O)Cc1ccccc1CSc1nc2ccccc2[nH]1
138 to 139 | CCOC(=O)Cn1c(=O)c2ccccc2n(Cc2ccc(Cl)cc2)c1=O
60 | CCc1cc(CC)c2sc3ccccc3c(=O)c2c1
67 to 68 | C[Si](C)(C)C(N)Cc1ccccc1 (configuration not stated)
117 to 118 | CC(=O)Nc1ccc(OCC(F)(F)F)cc1[N+](=O)[O-]
257 | COc1ccccc1-n1c(Cn2cnc3c(N)ncnc32)nc2cccc(Cl)c2c1=O

melting point [°C] | Compound
143 to 144 | COc1cc(F)c(C(=O)Nc2c(Cl)cncc2Cl)cc1OC1CCCC1
162 to 164 | O=C(O)C=C(c1ccccc1)c1ccccc1
75.7 | COc1ccc(COC(=O)c2ccccc2)cc1OCc1ccccc1
93 to 95 | COC(=O)c1c(SC(C)C)c2cc(OC)ccc2n1C
126 to 130 | O=C(c1ccc(CBr)cc1)c1c(Cl)cccc1Cl
189 to 191 | O=C1C(=CO)C(c2ccc(Cl)cc2Cl)c2c(Cl)cc(Cl)cc21 (configuration not stated)
75 to 78 | CS(=O)c1nc(-c2ccccc2)c(-c2ccccc2)o1 (configuration not stated)
170 to 173 | CCCc1nc(C(C)(C)O)c(C(=O)OCOC(=O)C(C)(C)C)n1Cc1ccc(-c2ccccc2C(=O)O)cc1
246 to 248 | Cc1c(C(=O)Nc2cc(Cl)c(N3CCC(N4CCOCC4)CC3)c(Cl)c2)cnn1-c1ccc(Cl)cc1
209 to 212 | O=C(O)[C@@]1(O)C[C@@H](O)[C@H](O)C2=C1CC(Cc1ccccc1)(Cc1ccccc1)S2
51 | C=CC(=O)OCCCC#Cc1ccc(C(F)(F)Oc2ccc(OC(F)(F)c3ccc(C#CCCCOC(=O)C=C)cc3)c(C)c2)cc1
195 to 197 | CNc1nc(-c2cccc(-c3cccc(SC)c3)c2)c2cc(OC)c(OC)cc2n1
235 to 236 | O=C(N[C@H](Cc1ccc(F)cc1)[C@@H](O)c1ccc(C(F)(F)F)cc1)c1ccc(F)c2ccccc12 (racemic)
189 to 190 | Cc1ccc(-c2ccc3c(c2)C=C(C(=O)Nc2ccc(Cc4ccccn4)cc2)CCO3)cc1
281 to 282 | Cn1c(=O)c(-c2ccc(Cl)cc2Cl)cc2c3cc(-c4ccn[nH]4)ccc3n(C)c21
279 to 282 | O=C(O)C=Cc1ccc(-n2ccccc2=O)cc1
121 to 125 | O=C(CC12CC3CC(CC(C3)C1)C2)N1CCc2sccc2C1
95 to 96 | CN(C)Cc1ccc2cc(-c3nnc(CSCCOc4ccccc4)o3)ccc2c1
75 to 78 | CC1CCCCN1c1cc(F)cc(C(=O)Nc2ccc(OCCN3CCOCC3)c3ccccc23)c1 (configuration not stated)
> 300 | CC(C)(C)Cn1c(=O)c(=O)[nH]c2cc([N+](=O)[O-])c(N)cc21
67 to 69 | N#CC1(N)CCc2cccc(Cl)c2C1 (configuration not stated)
221 to 223 | Cc1sc(N2CCN(C(=O)OC(C)(C)C)CC2)nc1/C=C/c1cn(-c2ccccc2)nc1O
> 250 | Cn1nc(-c2c(NCc3ccccc3)nc(N)nc2-c2ccccc2)ccc1=O
76 to 77 | CON=C(C(=O)OC(C)C)c1ccccc1CBr

melting point [°C] | Compound
157 | CCOC(=O)N1CCC(Nc2nc3cncnc3n2Cc2ccccc2)CC1
192 to 193 | Cc1cccc(C)c1NC(=O)NO
87 to 89 | O=P(O)(O)CCCCCCCCC(F)(F)C(F)(F)C(F)(F)C(F)(F)F
102 | CCCCCCC(O)CCCCCCCCCCC(=O)NCCNCCO (configuration not stated)
198 to 199 | COc1c(F)cc2c(c1-c1ccc(C[C@H](NC(=O)c3c(Cl)cccc3Cl)C(=O)O)cc1)OCO2
113 | COc1ccc(C=CC(=O)c2c(O)cc(OC)cc2OC(C)C)cc1
123 to 126 | CN(C)C(=N)c1nn(-c2c(Cl)cc(C(F)(F)F)cc2Cl)c(N)c1S(=O)C(F)(F)F (configuration not stated)
225 to 228 | O=C(Nc1ccc(Cl)c(C(F)(F)F)c1)Nc1ccc2ncsc2c1
133 to 134 | O=C(N[C@@H](Cc1ccccc1)C(=O)O)C(CS)C(F)(F)F (some centres not stated)
89 to 90 | O=C(C=Cc1ccncc1)c1cccc(C(F)(F)F)c1
83 to 85 | Cc1ccn2c(C)c(CCc3ccc4nc(C)oc4c3)nc2c1
129 to 133 | NC(=O)Cc1nc(-c2ccccc2)c(-c2ccccc2)o1
119 to 121 | CCn1nc(C)c2c(Cl)c(CO)cnc21
222 | CC(C)n1cc(-c2nc(C(=O)O)c(N)nc2-c2ccc(F)cc2)ccc1=O
96.5 to 97.5 | CON=C(c1ccccc1COc1cccc(Cl)c1)n1ccnc1
129 to 131 | FC(F)(F)c1ccc(-c2cc(Oc3ccc4c(C(F)(F)F)ccnc4c3)ncn2)cc1
205 to 206 | CNc1nnc(-c2ccc3occ(-c4ccccc4Cl)c3c2)o1
98 | COc1ccc2c(c1)C(O)(c1ccccn1)CC(C)(C)CO2 (configuration not stated)
81 to 82 | O=C(O)c1cc(Cl)cc(Oc2cccc(C(F)(F)F)c2)n1
149 to 150 | CCCCNS(=O)(=O)c1cc(C(=O)OCC)cc(NCc2ccccc2)c1Oc1ccccc1
137 to 138 | COc1ccc(Cc2c(NC(C)C(C)(C)C)c(=O)c2=O)cc1 (configuration not stated)
210 to 212 | NS(=O)(=O)c1cc2c(s1)S(=O)(=O)CC=C2
146 to 147 | CCN(CC)CCOC1c2ccccc2C(=O)N1c1ccccc1 (configuration not stated)
63 to 64.5 | CCOC(=O)c1c(N=[N+]=[N-])cc(C(F)(F)F)nc1C(F)(F)F

melting point [°C] | Compound
88 to 89 | COc1ccc(CCNc2nc(NCc3cc(OC)cc(OC)c3)c3cccnc3n2)cc1
86 to 88 | CCC(C)(C)NC(Nc1ccc2c(c1)OCO2)=C(C#N)S(C)(=O)=O
160 to 161 | CC(=O)NCc1ccc2c(c1)N(C1CCN(CCc3ccccc3F)CC1)CC2
127 to 130 | O=C1SC(Cc2ccc(OCCON=Cc3cnc4ccccc4c3)cc2)C(=O)N1C(c1ccccc1)(c1ccccc1)c1ccccc1 (configuration not stated)
144 to 146 | Cc1cc(SC2=C(O)CC(CCc3ccc(N)cc3)(CCc3ccc(N)cc3)OC2=O)c(C(C)(C)C)cc1CO
184 to 186 | Cc1nnc2c3c(c(NCCN4CCCC4)nn12)CCCC3
126 | COC(=O)[C@H](Cc1ccc([N+](=O)[O-])cc1)NC(C)=O
> 300 | Cc1nc(=O)[nH]c2cc(N(C)C)ccc12
138 to 140 | O=C1C(=O)c2ccccc2C2=C1SCC1(CCN(CC(O)COc3ccc(Cl)cc3)CC1)O2 (configuration not stated)
211 to 212 | CCOCc1cc2c(=O)c(C(=O)NCc3ccc(Cl)cc3)cn(C)c2o1
210 to 212 | O=C(NCc1cccnc1)c1ccc2n1Cc1ccccc1N(C(=O)c1ccc(-c3ccccc3CN3CCCC3)cc1)C2
235 to 237 | COc1ccc(N2CCOCC2)c2sc(-c3nc(-c4ccc5c(c4)OCCO5)c[nH]3)nc12
81 to 82 | CCOP(=O)(Cc1ccc(C(=O)N(Cc2ccccc2)c2ccc(Cl)cc2)cc1)OCC
132 to 135 | O=C1NC(=S)SC1=Cc1c(F)c(F)c(F)c(F)c1F
83 to 84 | O=C(CCCCCl)c1cc2c3c(c1)CCC(=O)N3CCC2
89 to 90.5 | COC1=C(OC)C(=O)C(CCCCCCCCCCCCCCCCCCCCCCO)=C(C)C1=O
104 to 105 | CC1(C)OC(c2cccs2)CN1C(=O)C(Cl)Cl (configuration not stated)
206 to 207 | CSC1NC(=O)N(c2ccccc2)C(=O)N1N=C(C)C (configuration not stated)
144 to 145 | Nc1cc(Br)nc(CO)c1
107 to 108 | Cc1c2c(c(C=O)c(C(C)C)c1OCc1ccccc1)OC(C)(C)C2
261 | O=[N+]([O-])C1NC=CN1c1cccnc1 (configuration not stated)
99 to 101 | COC(=O)c1ccc(Cl)cc1NC(=O)CSc1ccccc1Cl

Compound | melting point [°C]
CCC1CC2=CC(OC(=O)c3ccc([N+](=O)[O-])cc3)CCC2C2CCC3(C)C(O)CCC3C12 (configuration not stated) | 135 to 136
OC(c1ccc(F)cc1)(c1ccc(F)cc1)C1CCNCC1 | 160
O=C1OCC2C3OC(C4=C3CCCC4)C12 (configuration not stated) | 105 to 106
